Test results taken from patent US20130096160A1, “ARYLTHIAZOLYL PIPERIDINES AND RELATED COMPOUNDS AS MODULATORS OF SURVIVAL MOTOR NEURON (SMN) PROTEIN PRODUCTION” (Secretary, Department of Health and Human Services, priority 2010, published 2013).

Test system: SMN2-luciferase reporter
Test: SMN2-luciferase reporter qHTS assay
Format: cell-based, human
Parameters: key to Curve Class: A curve class of 1.1 is a full agonist/antagonist; a curve class of 4 indicates the compound is inactive
Conditions: for Curve Class: agonist/antagonist character of the concentration-response, lower values = more significant concentration-response; for Increased SMN2 activity: percent increase (or decrease) in SMN2 levels compared to control in which no test compound is added
Description: A cell-based quantitative high throughput screening (qHTS) assay is used to identify compounds able to increase SMN production. The assay uses a SMN2-luciferase reporter to determine if exon 7 of the SMN gene is expressed, which correlates with increased full-length SMN production from the SMN2 gene. As controls, a homologue SMN1-luciferase reporter cell line looks for variations in expression of the SMN1 gene and a cell line with just the luciferase reporter looks at the capacity of the compounds to inhibit luciferase. In addition, increments in SMN production by lead compounds were confirmed by Western-Blot analysis using SMA patient fibroblasts.
For the qHTS assay, concentration-response profiles are generated at the primary-screen level for each library compound to minimize the number of false positives. A dilution series consisting of seven points separated by five-fold concentration differences is prepared for each compound, yielding a concentration series that spans a range of about four orders of magnitude, for example from a high concentration of 50 micromolar to a low concentration of 3.2 nanomolar and providing adequate data for fitting to a Hill equation. For the assay, the SMN2 reporter cell line was plated at a density of ˜2000 cells/well in complete media (phenol red free DMEM, 10% detacl calf serum, and 1× pen/strep), in 1536 well white solid bottom tissue culture treated plates (Greiner). Cells were allowed to adhere and recover at 37 C in 5% CO2 for 10-12 hours. Compounds were added to the plates by a Pintool (Kalypsys) at a volume of 23 nl/well. Cells were incubated in the presence of compounds for 2 days at 37 C in 5% CO2. In order to quantify luciferase reporter levels, 3 ul/well of OneGlo (Promega) was added to each well and incubated at room temperature for 10 minutes. Luminescence from the reporter in each well is measured using a Viewlux CCD based imager (Perkin Elmer) with an integration time of 30 seconds and a binning of 2× in luminescence mode. Sodium butyrate was used as the positive control compound for luciferase induction and a column of 32 wells of 9.2 mM compound on each plate was used to monitor assay performance.
The SMN reporters used herein are modified from those previously described (M. L. Zhang, C. L. Lorson, E. J. Androphy and J. Zhou, An in vivo reporter system for measuring increased inclusion of exon 7 in SMN2 mRNA: potential therapy of SMA, Gene Ther 8 (2001), pp. 1532-1538.)
The sequence of the SMN1 reporter vector used herein is given in SEQ ID NO.:1, while that of the SMN2 reporter vector is given in SEQ ID NO.:2.
Each of the SMN reporters is constructed from three separate DNA fragments: (1) an SMN promotor sequence from the transcriptional reporter p 4.0T (SMN1) or p3.4C (SMN2) described in Monani, et al. Biochimica et Biophysica Acta 1445 (1999) 330-336; (2) a modification of the firefly luciferase splicing reporter for SMN1 or SMN2 described by Zhang et al; and (3) a 744 bp SMN cDNA fragment.
The 3.7 kB SMN1 promoter fragment is obtained by restriction of p4.0T with BglII and SacII. A 3.4 kB SMN2 promoter fragment is obtained by restriction of p3.4C with KpnI and SacII; a 300 bp BglII/KpnI fragment from p4.0T is then added to the 3.4 kB SMN2 promoter fragment to yield the final 3.7 kB SMN2 promoter fragment.
The modified SMN1 and SMN2 firefly luciferase splicing reporters are obtained by removing 4 kB of intron 6 in the original reporter system by restriction with SmaI/Swa followed by religation of the reporter. A 4 kB luciferase splicing reporter is then obtaind by digestion with XhoI and NotI.
Ths SMN cDNA fragment is obtained by generating the productof a polymerase chain reaction (PCR) on a cDNA preparation using […] (SEQ ID NO:3) as the forward primer and Tatctcgagtggtccagaaggaaatggaggcagcc (SEQ ID NO:4) as the reverse primer. The PCR product is then digested with XhoI and SacII. […]

Row | Structure (SMILES) | Curve Class | Increased SMN2 activity [%]
1 | CN(C)c1cccc(-c2ncnc(N3CCC(C(N)=O)CC3)n2)c1 [Example 145, 1-(4-(3-(Dimethylamino)Phenyl)-1,3,5-Triazin-2-yl)Piperidine-4-Carboxamide] | 1.1 | 199.9
2 | NC(=O)N1CCN(c2nc(-c3ccc(Br)cc3)cs2)CC1 [Example 118, 4-(4-(4-Bromophenyl)Thiazol-2-yl)Piperazine-1-Carboxamide] | 2.1 | 88.79
3 | NC(=O)C1CCN(c2ncc(-c3cccc(F)c3)s2)CC1 [Example 121, 1-(5-(3-Fluorophenyl)Thiazol-2-yl)Piperidine-4-Carboxamide] | 1.1 | 601.5
4 | NC(=O)C1CCN(c2nc(-c3ccc(-c4ccccc4)cc3)cs2)CC1 [Example 28, 1-(4-(Biphenyl-4-yl)Thiazol-2-yl)Piperidine-4-Carboxamide] | 2.2 | 58.07
5 | CN(C)c1cccc(-c2nnc(N3CCC(C(N)=O)CC3)s2)c1 [Example 132, 1-(5-(3-(Dimethylamino)Phenyl)-1,3,4-Thiadiazol-2-yl)Piperidine-4-Carboxamide] | 1.1 | 448.5
6 | NC(=O)C1CCN(c2nccc(-c3ccc(Br)cc3)n2)CC1 [Example 80, 1-(4-(4-Bromophenyl)Pyrimidin-2-yl)Piperidine-4-Carboxamide] | 1.1 | 387
7 | Cc1cccc(-c2csc(N3CCC(C(N)=O)CC3)n2)c1 [Example 46, 1-(4-M-Tolylthiazol-2-yl)Piperidine-4-Carboxamide] | 2.1 | 187.4
8 | NC(=O)C1CCN(c2ncc(-c3cccc(N4CCCC4)c3)s2)CC1 [Example 137, 1-(5-(3-(Pyrrolidin-1-yl)Phenyl)Thiazol-2-yl)Piperidine-4-Carboxamide] | 1.1 | 685.1
9 | c1c[nH]c(C2CCN(c3ncc(-c4ccc5c(c4)OCCCO5)s3)CC2)n1 [Example 135, 2-(4-(1H-Imidazol-2-yl)Piperidin-1-yl)-5-(3,4-Dihydro-2H-Benzo[B][1,4] Dioxepin-7-yl)Thiazole] | 1.1 | 129.4
10 | CC(=O)c1ccc(-c2csc(N3CCC(C(N)=O)CC3)n2)cc1 [Example 45, 1-(4-(4-Acetylphenyl)Thiazol-2-yl)Piperidine-4-Carboxamide] | 2.1 | 130.4
11 | CC(C)COc1ccc(-c2csc(N3CCC(C(N)=O)CC3)n2)cc1 [Example 106, 1-(4-(4-Isobutoxyphenyl)Thiazol-2-yl)Piperidine-4-Carboxamide] | 1.2 | 54
12 | NC(=O)C1CCN(c2nc(-c3ccc(C(F)(F)F)cc3)cs2)CC1 [Example 22, 1-(4-(4-Trifluoromethylphenyl)Thiazol-2-yl)Piperidine-4-Carboxamide] | 1.1 | 386.1
13 | NC(=O)C1CCN(c2nc(-c3cccc(F)c3)cs2)CC1 [Example 33, 1-(4-(3-Fluorophenyl)Thiazol-2-yl)Piperidine-4-Carboxamide] | 2.2 | 64
14 | Brc1ccc(-c2csc(N3CCNCC3)n2)cc1 [Example 108, 4-(4-Bromophenyl)-2-(Piperazin-1-yl)Thiazole] | −2.1 | −97.29
15 | Cc1ccc(-c2ccnc(N3CCC(C(N)=O)CC3)n2)cc1 [Example 126, 1-(4-P-Tolylpyrimidin-2-yl)Piperidine-4-Carboxamide] | 1.1 | 444.6
16 | COc1ccc(-c2cnc(N3CCC(C(N)=O)CC3)s2)cc1OC [Example 150, 1-(5-(3,4-Dimethoxyphenyl)Thiazol-2-yl)Piperidine-4-Carboxamide] | 1.1 | 209.7
17 | NC(=O)C1CCN(c2nc(-c3ccc4c(c3)OCCCO4)cs2)CC1 [Example 99, 1-(4-(3,4-Dihydro-2H-Benzo[B][1,4]Dioxepin-7-yl)Thiazol-2-yl)Piperidine-4-Carboxamide] | 1.1 | 443.2
18 | NC(=O)C1CCN(c2ncc(-c3ccc4c(c3)OCO4)s2)CC1 [Example 125, 1-(5-(Benzo[D][1,3]Dioxol-5-yl)Thiazol-2-yl)Piperidine-4-Carboxamide] | 1.1 | 589.875
19 | NC(=O)C1CCN(c2cc(-c3ccc4c(c3)OCCCO4)ncn2)CC1 [Example 142, 1-(6-(3,4-Dihydro-2H-Benzo[B][1,4]Dioxepin-7-yl)Pyrimidin-4-yl)Piperidine-4-Carboxamide] | 1.1 | 211.1
20 | Cc1ccc(-c2nnc(N3CCC(C(N)=O)CC3)s2)cc1 [Example 133, 1-(5-P-Tolyl-1,3,4-Thiadiazol-2-yl)Piperidine-4-Carboxamide] | 1.2 | 54
21 | N#CC1CCN(c2nc(-c3ccc(Br)cc3)cs2)CC1 [Example 102, 1-(4-(4-Bromophenyl)Thiazol-2-yl)Piperidine-4-Carbonitrile] | 2.2 | 77.87
22 | NC(=O)C1CCN(c2nc(-c3ccc(Cl)cc3)cs2)CC1 [Example 20, 1-(4-(4-Chlorophenyl)Thiazol-2-yl)Piperidine-4-Carboxamide] | 1.1 | 380.6
23 | CC(C)(C)c1ccc(-c2csc(N3CCC(C(N)=O)CC3)n2)cc1 [Example 98, 1-(4-(4-Tert-Butylphenyl)Thiazol-2-yl)Piperidine-4-Carboxamide] | 1.1 | 243.3
24 | CC(=O)N1CCN(c2nc(-c3ccc(Br)cc3)cs2)CC1 [Example 110, 1-(4-(4-(4-Bromophenyl)Thiazol-2-yl)Piperazin-1-yl)Ethanone] | 1.1 | 234.5
25 | CC(C)Oc1ccc(-c2csc(N3CCC(C(N)=O)CC3)n2)cc1 [Example 91, 1-(4-(4-Isopropoxyphenyl)Thiazol-2-yl)Piperidine-4-Carboxamide] | 1.1 | 178.2
26 | NC(=O)C1CCN(c2nc(-c3ccc(F)cc3)cs2)CC1 [Example 19, 1-(4-(4-Fluorophenyl)Thiazol-2-yl)Piperidine-4-Carboxamide] | 1.1 | 287.7
27 | Cc1ccc(-c2csc(N3CCC(C(N)=O)CC3)n2)cc1 [Example 21, 1-(4-(4-Methylphenyl)Thiazol-2-yl)Piperidine-4-Carboxamide] | 1.1 | 439.1
28 | CCOC(=O)C1CCN(c2nc(-c3ccc(Br)cc3)cs2)CC1 [Example 44, Ethyl 1-(4-(4-Bromophenyl)Thiazol-2-yl)Piperidine-4-Carboxylate] | 1.1 | 550.3
29 | NC(=O)C1CCN(c2nc(-c3cccc([N+](=O)[O-])c3)cs2)CC1 [Example 37, 1-(4-(3-Nitrophenyl)Thiazol-2-yl)Piperidine-4-Carboxamide] | 2.4 | 20.29
30 | CC(=O)NC1CCN(c2nc(-c3ccc(Br)cc3)cs2)CC1 [Example 113, N-(1-(4-(4-Bromophenyl)Thiazol-2-yl)Piperidin-4-yl)Acetamide] | −1.4 | −56.62
